Values of other authors, collected in US20120244588A1, “METHOD OF PRODUCING 3-HYDROXYPROPIONIC ACID USING MALONIC SEMIALDEHYDE REDUCING PATHWAY” (SAMSUNG ELECTRONICS CO., LTD., priority 2011, published 2012).

What was measured:
[1] = 25° C.

| pKa [1] | solubility in water | solubility in water relative to citric acid or malic acid | SMILES |
| --- | --- | --- | --- |
| 4.51 | very soluble | – | O=C(O)CCO [3-HP, 3-hydroxypropionic acid] |
| – | – | 100 times | O=C([O-])CCO.O=C([O-])CCO.[Ca+2] [calcium salt of 3-HP] |
